Measured values from publication PMC9864331, “Biosynthesis of α-Bisabolol by Farnesyl Diphosphate Synthase and α-Bisabolol Synthase and Their Related Transcription Factors in Matricaria recutita L” (International Journal of Molecular Sciences, 2023).

Target: T1, MrBBS (Matricaria chamomilla, UniProt A0A0A0RIB3)
T1 construct: pCold TF (trigger factor) fusion, E. coli BL21(DE3) pLysS; assayed as crude enzyme
T1 sequence (A0A0A0RIB3 1-572): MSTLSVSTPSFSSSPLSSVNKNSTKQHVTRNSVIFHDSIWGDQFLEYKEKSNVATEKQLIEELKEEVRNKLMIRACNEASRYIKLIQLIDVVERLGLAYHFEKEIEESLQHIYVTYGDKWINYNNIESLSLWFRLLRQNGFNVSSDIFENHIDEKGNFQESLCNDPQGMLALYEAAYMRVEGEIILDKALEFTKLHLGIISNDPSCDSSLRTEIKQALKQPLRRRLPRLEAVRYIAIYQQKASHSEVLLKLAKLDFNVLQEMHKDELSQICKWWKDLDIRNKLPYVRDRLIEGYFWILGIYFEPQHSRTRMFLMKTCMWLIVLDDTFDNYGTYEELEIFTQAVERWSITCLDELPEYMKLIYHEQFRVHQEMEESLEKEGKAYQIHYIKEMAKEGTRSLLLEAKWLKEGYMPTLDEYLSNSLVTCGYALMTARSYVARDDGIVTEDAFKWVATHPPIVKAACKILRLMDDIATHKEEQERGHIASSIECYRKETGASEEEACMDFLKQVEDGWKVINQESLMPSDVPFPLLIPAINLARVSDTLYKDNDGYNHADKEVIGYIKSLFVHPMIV
Assay: GC-MS of hexane-extracted products
Assay type: biochemical
Details: 100 µM FPP; 50 mM Tris-HCl pH 7.5; 10 mM MgCl2; 20 µg crude enzyme; product alpha-bisabolol

SMILES: CC(C)=CCC/C(C)=C/CC/C(C)=C/COP(=O)(O)OP(=O)(O)O [FPP]
- GC-MS of hexane-extracted products: MrBBS catalyzed the conversion of FPP into α-bisabolol
